Where two headings read alike, the source gives them in different places.
How the values were obtained:
[1] = tested on: blood cancer cell lines (e.g. HL-60, Jurkat, Raji, Ramos, Daudi, MOLT-4); assay: Cell based assay, cell viability (CellTiter-Glo), blood cancer cell lines; conditions: Homo sapiens
Description: (§1) Commercially available bladder cancer, prostate cancer, lung cancer, breast cancer, blood cancer, pancreatic cancer, colorectal cancer, brain cancer, neuroblastoma, melanoma, liver cancer, cervical carcinoma, ovarian cancer, renal cancer, and papilloma cell lines were each treated with trypsin-EDTA and cultured, followed by being seeded in each well of a 96 well plate. After 24 hours of treatment at constant temperature, the respective cells were treated with the candidate compound so that a final concentration became 0 to 2 μM. The treated cells were additionally cultured for 72 hours, and cell viability was measured by using an ATP detection method (CellTiter-Glo® Luminescent Cell Viability Assay, Promega).

[2] = tested on: pancreatic cancer cell lines (e.g. MIA PaCa-2); assay: Cell based assay, cell viability (CellTiter-Glo), pancreatic cancer cell lines; conditions: Homo sapiens
Description: as §1

neuroblastoma cell lines = assay: Cell based assay, cell viability (CellTiter-Glo), neuroblastoma cell lines; conditions: Homo sapiens; SH-SY5Y cell line
Description: as §1

renal cancer cell lines = assay: Cell based assay, cell viability (CellTiter-Glo), renal cancer cell lines; conditions: Homo sapiens; ACHN cells
Description: as §1

[3] = MV4-11, blood cancer cell line MV-4-11, 72 hours, read-out: IC50, MV-4-11
[4] = blood cancer cell line Daudi, 72 hours, read-out: IC50, Daudi
[5] = blood cancer cell line HL-60, 72 hours, read-out: IC50, HL-60
[6] = blood cancer cell line Jurkat, 72 hours, read-out: IC50, Jurkat
[7] = blood cancer cell line MOLT-4, 72 hours, read-out: IC50, MOLT-4
[8] = blood cancer cell line Raji, 72 hours, read-out: IC50, Raji
[9] = blood cancer cell line Ramos (RA 1), 72 hours, read-out: IC50, Ramos (RA 1)
[10] = blood cancer cell line U-937, 72 hours, read-out: IC50, U-937
[11] = pancreatic cancer cell line AsPC-1, 72 hours, read-out: IC50, AsPC-1
[12] = pancreatic cancer cell line BxPC-3, 72 hours, read-out: IC50, BxPC-3
[13] = pancreatic cancer cell line CFPAC-1, 72 hours, read-out: IC50, CFPAC-1
[14] = pancreatic cancer cell line Capan-1, 72 hours, read-out: IC50, Capan-1
[15] = pancreatic cancer cell line Capan-2, 72 hours, read-out: IC50, Capan-2
[16] = pancreatic cancer cell line MIA PaCa-2, 72 hours, read-out: IC50, MIA PaCa-2
[17] = pancreatic cancer cell line PANC-1, 72 hours, read-out: IC50, PANC-1

| Structure (SMILES) | IC50 [1, 3] | IC50 [1, 4] | IC50 [1, 5] | IC50 [1, 6] | IC50 [1, 7] | IC50 [1, 8] | IC50 [1, 9] | IC50 [1, 10] | IC50 [2, 11] | IC50 [2, 12] | IC50 [2, 13] | IC50 [2, 14] | IC50 [2, 15] | IC50 [2, 16] | IC50 [2, 17] | IC50 (neuroblastoma cell lines) | IC50 (renal cancer cell lines) |
| --- | --- | --- | --- | --- | --- | --- | --- | --- | --- | --- | --- | --- | --- | --- | --- | --- | --- |
| COC(=O)c1ccc(C[S+]([O-])c2[nH]c3c(Cl)ccc(Cl)c3c(=O)c2C(C)=O)cc1 (centres unmarked) [Compound 91, methyl 4-(((3-acetyl-5,8-dichloro-4-oxo-1,4-dihydroquinolin-2-yl)sulfinyl)methyl)benzoate] | > 2 µM | > 2 µM | > 2 µM | 1.73 µM | > 2 µM | > 2 µM | > 2 µM | > 2 µM | > 2 µM | > 2 µM | > 10 µM | > 2 µM | > 2 µM | 1.42 µM | > 2 µM | 1.22 µM | > 2 µM |
| CC(=O)c1c([S+]([O-])Cc2cccc(I)c2)[nH]c2c(Br)ccc(Cl)c2c1=O (centres unmarked) [Compound 48, 3-acetyl-8-bromo-5-chloro-2-((3-iodobenzyl)sulfinyl)quinolin-4(1H)-one] | > 2 µM | > 2 µM | > 2 µM | > 2 µM | > 2 µM | > 2 µM | > 2 µM | > 2 µM | > 2 µM | > 2 µM | > 10 µM | > 2 µM | > 2 µM | > 2 µM | > 2 µM | > 2 µM | > 2 µM |
| CSc1c(C(C)=O)c(=O)c2c(Cl)ccc(Br)c2n1S(=O)(=O)c1ccc([N+](=O)[O-])cc1 [Compound 38, 3-acetyl-8-bromo-5-chloro-2-(methylthio)-1-((4-nitrophenyl)sulfonyl)quinolin-4(1H)-one] | > 2 µM | > 2 µM | > 2 µM | > 2 µM | > 2 µM | > 2 µM | > 2 µM | > 2 µM | > 2 µM | > 2 µM | > 10 µM | > 2 µM | > 2 µM | > 2 µM | > 2 µM | > 2 µM | > 2 µM |
| CC(=O)c1c([S+]([O-])Cc2ccc(C(F)(F)F)o2)[nH]c2c(F)ccc(F)c2c1=O (centres unmarked) [Compound 81, 3-acetyl-5,8-difluoro-2-(((5-(trifluoromethyl)furan-2-yl)methyl)sulfinyl)quinolin-4(1H)-one] | > 2 µM | > 2 µM | > 2 µM | > 2 µM | > 2 µM | > 2 µM | > 2 µM | > 2 µM | > 2 µM | > 2 µM | > 10 µM | > 2 µM | > 2 µM | > 2 µM | > 2 µM | > 2 µM | > 2 µM |
| CC(=O)c1c([S+]([O-])Cc2cccc(C#N)c2)[nH]c2c(Br)ccc(Cl)c2c1=O (centres unmarked) [Compound 28, 3-(((3-acetyl-8-bromo-5-chloro-4-oxo-1,4-dihydroquinolin-2-yl)sulfinyl)methyl)benzonitrile] | 1.07 µM | 1.94 µM | 1.06 µM | 0.88 µM | 1.18 µM | 0.87 µM | 1.49 µM | 0.87 µM | > 2 µM | > 2 µM | > 10 µM | > 2 µM | > 2 µM | 0.88 µM | > 2 µM | > 2 µM | > 2 µM |
| O=C(c1ccccc1)c1c([S+]([O-])Cc2ccc(S(F)(F)(F)(F)F)cc2)[nH]c2c(F)ccc(F)c2c1=O (centres unmarked) [Compound 87, 3-benzoyl-5,8-difluoro-2-((4-(pentafluoro--sulfanyl)benzyl)sulfinyl)quinolin-4(1H)-one] | > 2 µM | > 2 µM | > 2 µM | > 2 µM | > 2 µM | > 2 µM | > 2 µM | > 2 µM | > 2 µM | > 2 µM | > 10 µM | > 2 µM | > 2 µM | > 2 µM | > 2 µM | > 2 µM | > 2 µM |
| CC(=O)c1c([S+]([O-])Cc2ccc(S(F)(F)(F)(F)F)cc2)[nH]c2c(F)ccc(F)c2c1=O (centres unmarked) [Compound 80, 3-acetyl-5,8-difluoro-2-((4-(pentafluoro--sulfanyl)benzyl)sulfinyl)quinolin-4(1H)-one] | > 2 µM | > 2 µM | > 2 µM | > 2 µM | > 2 µM | > 2 µM | > 2 µM | > 2 µM | > 2 µM | > 2 µM | > 10 µM | > 2 µM | > 2 µM | > 2 µM | > 2 µM | > 2 µM | > 2 µM |

— patent US11464770B2, “Anticancer pharmaceutical composition” (NATIONAL CANCER CENTER, priority 2016, dated 2022)
